The IC50 is the concentration that gives 50% inhibition. A high value points to weaker potency.

15 compounds from patent US20250320193A1, “OXOISOINDOLINYL SUBSTITUTED PIPERIDINEDIONE DERIVATIVE AND USE THEREOF” (GLUETACS THERAPEUTICS (SHANGHAI) CO., LTD., priority 2022, published 2025) can be followed below.

The target in experiment [1] is human Cereblon WT GST-tagged protein (Homo sapiens (Human), UniProt Q96SW2). Put plainly: CRBN-binding affinity, HTRF (CEREBLON BINDING kit, CISBIO). The note with it: HTRF inhibitory activity. The method, boiled down:
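HTRF competition format: test compound displaces Thalidomide-Red from GST-tagged human Cereblon WT, detected with a Eu-labelled anti-GST antibody. Percent CRBN binding inhibition was derived from the 620 nm signal, normalized to solvent-control and protein-free blank wells.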
For orientation: TR-FRET usually uses a lanthanide donor and a delayed reading to cut background.

In another experiment the target is IKZF3 (Homo sapiens (Human), UniProt Q96SW2+Q9UKT9). Briefly: Western blot, substrate protein expression in hPBMC: IKZF3. The note with it: hPBMC, compound 500 nM, 24 hours, Western blot. Format: cell-based. The method in brief: (§1)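 hPBMC, 1×10^6 cells/mL, 24 h compound exposure; RIPA lysis, BCA protein assay, SDS-PAGE, NC membrane immunoblot. Densitometry vs internal control → % protein remaining; degradation % = 100% − remaining; DC50 = conc. at 50% of DMSO band signal.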
Sequence of IKZF3 (Q9UKT9 whole entry): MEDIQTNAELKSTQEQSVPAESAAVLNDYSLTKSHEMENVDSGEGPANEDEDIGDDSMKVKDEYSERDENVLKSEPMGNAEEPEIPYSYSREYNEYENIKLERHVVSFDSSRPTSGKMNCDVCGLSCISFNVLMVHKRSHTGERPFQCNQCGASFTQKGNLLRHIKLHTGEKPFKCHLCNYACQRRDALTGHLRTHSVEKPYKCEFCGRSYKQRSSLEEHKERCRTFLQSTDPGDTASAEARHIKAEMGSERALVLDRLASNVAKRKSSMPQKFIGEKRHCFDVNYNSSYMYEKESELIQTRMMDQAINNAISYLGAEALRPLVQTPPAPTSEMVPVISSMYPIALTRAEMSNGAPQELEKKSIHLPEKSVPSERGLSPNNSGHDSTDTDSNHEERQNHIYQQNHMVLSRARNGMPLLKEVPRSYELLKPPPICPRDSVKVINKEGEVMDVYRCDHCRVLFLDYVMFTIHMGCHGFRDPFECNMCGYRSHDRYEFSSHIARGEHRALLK
Sequence of IKZF3 (Q96SW2 whole entry): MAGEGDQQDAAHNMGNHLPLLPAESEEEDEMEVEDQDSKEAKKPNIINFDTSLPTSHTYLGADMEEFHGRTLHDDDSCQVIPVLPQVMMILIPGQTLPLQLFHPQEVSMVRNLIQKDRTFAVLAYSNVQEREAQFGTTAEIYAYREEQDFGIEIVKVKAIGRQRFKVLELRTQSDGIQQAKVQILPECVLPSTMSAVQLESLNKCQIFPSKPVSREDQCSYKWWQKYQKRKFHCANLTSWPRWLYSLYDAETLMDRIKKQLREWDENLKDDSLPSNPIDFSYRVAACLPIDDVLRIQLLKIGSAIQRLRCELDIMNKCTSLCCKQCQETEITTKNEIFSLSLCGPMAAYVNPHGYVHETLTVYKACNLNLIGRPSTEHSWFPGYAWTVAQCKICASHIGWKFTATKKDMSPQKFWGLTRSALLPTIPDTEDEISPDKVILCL
Sequence of IKZF3 (Q16531 whole entry partner): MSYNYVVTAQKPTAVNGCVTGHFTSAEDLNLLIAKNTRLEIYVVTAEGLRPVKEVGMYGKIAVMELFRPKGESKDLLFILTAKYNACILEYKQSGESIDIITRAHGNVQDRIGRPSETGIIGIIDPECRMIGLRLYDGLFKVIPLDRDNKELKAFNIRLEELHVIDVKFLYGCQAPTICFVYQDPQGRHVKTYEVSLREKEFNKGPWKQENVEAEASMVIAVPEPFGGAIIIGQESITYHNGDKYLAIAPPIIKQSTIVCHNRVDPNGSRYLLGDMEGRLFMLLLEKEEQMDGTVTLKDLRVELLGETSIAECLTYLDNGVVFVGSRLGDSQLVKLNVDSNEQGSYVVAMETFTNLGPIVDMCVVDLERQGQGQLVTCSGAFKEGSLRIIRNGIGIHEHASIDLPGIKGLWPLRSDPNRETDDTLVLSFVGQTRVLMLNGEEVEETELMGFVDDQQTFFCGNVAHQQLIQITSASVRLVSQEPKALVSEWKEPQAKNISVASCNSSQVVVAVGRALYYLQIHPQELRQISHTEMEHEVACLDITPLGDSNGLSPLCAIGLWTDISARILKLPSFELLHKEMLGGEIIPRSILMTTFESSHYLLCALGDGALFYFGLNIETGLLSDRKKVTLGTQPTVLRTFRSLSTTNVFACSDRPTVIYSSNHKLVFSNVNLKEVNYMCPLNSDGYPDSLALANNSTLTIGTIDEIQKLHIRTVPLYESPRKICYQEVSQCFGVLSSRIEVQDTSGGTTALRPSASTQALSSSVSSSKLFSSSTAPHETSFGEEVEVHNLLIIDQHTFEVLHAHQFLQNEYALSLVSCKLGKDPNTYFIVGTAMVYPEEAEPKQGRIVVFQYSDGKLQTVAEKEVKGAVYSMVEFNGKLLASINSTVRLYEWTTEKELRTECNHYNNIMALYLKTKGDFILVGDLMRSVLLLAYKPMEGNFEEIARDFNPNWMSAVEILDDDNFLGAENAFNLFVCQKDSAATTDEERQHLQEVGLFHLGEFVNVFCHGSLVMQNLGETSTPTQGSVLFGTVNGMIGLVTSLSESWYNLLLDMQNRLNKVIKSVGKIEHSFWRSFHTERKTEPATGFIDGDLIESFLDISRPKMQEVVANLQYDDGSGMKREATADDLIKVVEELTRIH
A general note: Immunoblotting shows a protein as a band on a membrane.

The next experiment deals with IKZF1 (Homo sapiens (Human), UniProt Q13422+Q96SW2). Put plainly: Western blot, substrate protein expression in hPBMC: IKZF1. It is filed as cell-based. The settings on record: hPBMC, compound 500 nM, 24 hours, Western blot. The method in brief:
as §1

Another experiment has as its target GSPT1 (Homo sapiens (Human), UniProt P15170+Q96SW2). Briefly: Western blot, substrate protein expression in hPBMC: GSPT1. It is filed as cell-based. The settings on record: hPBMC, compound 500 nM, 24 hours, Western blot. The method, boiled down:
as §1

Structures are written as SMILES. Where only a bound is given, the exact number is not on record here.

Sequence of IKZF1 (Q13422 whole entry): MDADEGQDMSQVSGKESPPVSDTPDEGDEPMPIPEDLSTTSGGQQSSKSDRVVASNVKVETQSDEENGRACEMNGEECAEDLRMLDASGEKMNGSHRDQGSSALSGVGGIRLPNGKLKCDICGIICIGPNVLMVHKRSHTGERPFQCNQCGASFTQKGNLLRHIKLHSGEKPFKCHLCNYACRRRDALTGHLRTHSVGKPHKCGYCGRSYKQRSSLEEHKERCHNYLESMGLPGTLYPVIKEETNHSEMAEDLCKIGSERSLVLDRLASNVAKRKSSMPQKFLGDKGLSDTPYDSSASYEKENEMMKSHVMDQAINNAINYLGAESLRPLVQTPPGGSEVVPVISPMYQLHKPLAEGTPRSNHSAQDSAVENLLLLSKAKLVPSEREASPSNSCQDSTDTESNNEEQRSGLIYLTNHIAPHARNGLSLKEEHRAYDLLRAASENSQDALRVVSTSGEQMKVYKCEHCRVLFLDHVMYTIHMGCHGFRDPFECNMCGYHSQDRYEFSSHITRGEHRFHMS
Sequence of IKZF1 (Q96SW2 whole entry): as the sequence (Q96SW2 whole entry) above
Sequence of IKZF1 (Q16531 whole entry partner): as the sequence (Q16531 whole entry partner) above
Sequence of human Cereblon WT GST-tagged protein (Q96SW2 whole entry): as the sequence (Q96SW2 whole entry) above
Sequence of GSPT1 (P15170 whole entry): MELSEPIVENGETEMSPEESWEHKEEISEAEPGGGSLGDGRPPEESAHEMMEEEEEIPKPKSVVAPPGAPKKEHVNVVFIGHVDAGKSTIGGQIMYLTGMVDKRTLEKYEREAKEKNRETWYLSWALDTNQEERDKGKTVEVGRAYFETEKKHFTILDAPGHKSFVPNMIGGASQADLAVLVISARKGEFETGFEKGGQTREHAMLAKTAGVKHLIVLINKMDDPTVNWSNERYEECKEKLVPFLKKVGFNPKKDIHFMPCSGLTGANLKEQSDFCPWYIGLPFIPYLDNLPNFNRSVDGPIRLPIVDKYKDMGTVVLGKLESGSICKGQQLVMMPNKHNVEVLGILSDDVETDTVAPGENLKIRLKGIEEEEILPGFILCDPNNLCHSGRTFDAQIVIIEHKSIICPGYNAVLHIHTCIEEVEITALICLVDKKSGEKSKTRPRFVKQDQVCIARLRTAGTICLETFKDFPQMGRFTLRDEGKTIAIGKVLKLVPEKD
Sequence of GSPT1 (Q96SW2 whole entry): as the sequence (Q96SW2 whole entry) above
Sequence of GSPT1 (Q16531 whole entry partner): as the sequence (Q16531 whole entry partner) above

For `O=C1CCC(N2Cc3c(C(=O)N4CCN(C(c5ccccc5)c5ccccn5)CC4)cccc3C2=O)C(=O)N1` (stereo not drawn) [GT-05929, 3-(1-oxo-4-(4-(phenyl(pyridin-2-yl)methyl)piperazine-1-carbonyl)isoindolin-2-yl)piperidine-2,6-dione], the IC50 in experiment [1] was in the range of 500 to 1000 nM. The “substrate protein remaining % IKZF3” value at IKZF3 is listed as “A (A represents 0% ≤ substrate protein remaining % ≤ 50%)”. The “substrate protein remaining % IKZF1” value on IKZF1 is given as “A (A represents 0% ≤ substrate protein remaining % ≤ 50%)”. In addition, the “substrate protein remaining % GSPT1” value on GSPT1 is “A (A represents 0% ≤ substrate protein remaining % ≤ 50%)”.

The compound `O=C1CCC(N2Cc3c(C(=O)N4CCN(C(c5ccc(F)cc5)c5ccc(F)cc5)CC4)cccc3C2=O)C(=O)N1` (stereo not drawn) [GT-05930, 3-(4-(4-(bis(4-fluorophenyl)methyl)piperazine-1-carbonyl)-1-oxoisoindolin-2-yl)piperidine-2,6-dione] had an IC50 in experiment [1] of less than 500 nM. Further, the “substrate protein remaining % IKZF3” value at IKZF3 was “B (B represents substrate protein remaining % > 50%)”. Besides, the “substrate protein remaining % IKZF1” value at IKZF1 is “B (B represents substrate protein remaining % > 50%)”. For the same compound, the “substrate protein remaining % GSPT1” value on GSPT1 was “A (A represents 0% ≤ substrate protein remaining % ≤ 50%)”.

Regarding `CC1(C)CN(Cc2cc3c(cc2F)C(=O)N(C2CCC(=O)NC2=O)C3)CCN1C(c1ccccc1)c1ccccc1` (stereo not drawn) [GT-05960, 3-(5-((4-benzhydryl-3,3-dimethylpiperazin-1-yl)methyl)-6-fluoro-1-oxoisoindolin-2-yl)piperidine-2,6-dione], in experiment [1], the IC50 was in the range of 1000 to 1900 nM. In addition, at IKZF3, the “substrate protein remaining % IKZF3” value was “A (A represents 0% ≤ substrate protein remaining % ≤ 50%)”. Besides, the “substrate protein remaining % IKZF1” value on IKZF1 is reported as “B (B represents substrate protein remaining % > 50%)”. The “substrate protein remaining % GSPT1” value at GSPT1 was “A (A represents 0% ≤ substrate protein remaining % ≤ 50%)”.

For the compound `CC1(C)CN(Cc2cc(F)c3c(c2)CN(C2CCC(=O)NC2=O)C3=O)CCN1C(c1ccccc1)c1ccccc1` (stereo not drawn) [GT-05961, 3-(5-((4-benzhydryl-3,3-dimethylpiperazin-1-yl)methyl)-7-fluoro-1-oxoisoindolin-2-yl)piperidine-2,6-dione], the IC50 in experiment [1] fell in the range of 500 to 1000 nM. At IKZF3, the “substrate protein remaining % IKZF3” value was “A (A represents 0% ≤ substrate protein remaining % ≤ 50%)”. The “substrate protein remaining % IKZF1” value at IKZF1 was “B (B represents substrate protein remaining % > 50%)”. For the same compound, the “substrate protein remaining % GSPT1” value at GSPT1 is “A (A represents 0% ≤ substrate protein remaining % ≤ 50%)”.

For the compound `O=C1CCC(N2Cc3cc(CN4CC5CCC4CN5C(c4ccccc4)c4ccccc4)c(F)cc3C2=O)C(=O)N1` (stereo not drawn) [GT-05963, 3-(5-((5-benzhydryl-2,5-diazabicyclo[2.2.2]octan-2-yl)methyl)-6-fluoro-1-oxoisoindolin-2-yl)piperidine-2,6-dione], in experiment [1], the IC50 was 500 to 1000 nM. Besides, the “substrate protein remaining % IKZF3” value on IKZF3 is “B (B represents substrate protein remaining % > 50%)”. Moreover, the “substrate protein remaining % IKZF1” value at IKZF1 is on record as “B (B represents substrate protein remaining % > 50%)”. Besides, the “substrate protein remaining % GSPT1” value on GSPT1 is “A (A represents 0% ≤ substrate protein remaining % ≤ 50%)”.

Turning to `CC1CN(Cc2ccc3c(c2F)CN(C2CCC(=O)NC2=O)C3=O)CC(C)N1C(c1ccccc1)c1ccccc1` (stereo not drawn) [GT-05965, 3-(5-((4-benzhydryl-3,5-dimethylpiperazin-1-yl)methyl)-4-fluoro-1-oxoisoindolin-2-yl)piperidine-2,6-dione], in experiment [1], the IC50 was 1000 to 1900 nM. Also, on IKZF3, the “substrate protein remaining % IKZF3” value is on record as “A (A represents 0% ≤ substrate protein remaining % ≤ 50%)”. Also, the “substrate protein remaining % IKZF1” value on IKZF1 is “A (A represents 0% ≤ substrate protein remaining % ≤ 50%)”. Besides, at GSPT1, the “substrate protein remaining % GSPT1” value is reported as “A (A represents 0% ≤ substrate protein remaining % ≤ 50%)”.

Take `CC1CN(Cc2cc3c(cc2F)C(=O)N(C2CCC(=O)NC2=O)C3)CC(C)N1C(c1ccccc1)c1ccccc1` (stereo not drawn) [GT-05966, 3-(5-((4-benzhydryl-3,5-dimethylpiperazin-1-yl)methyl)-6-fluoro-1-oxoisoindolin-2-yl)piperidine-2,6-dione]: the IC50 in experiment [1] lay within 1000 to 1900 nM. Further, the “substrate protein remaining % IKZF3” value on IKZF3 is recorded as “B (B represents substrate protein remaining % > 50%)”. The “substrate protein remaining % IKZF1” value at IKZF1 is listed as “B (B represents substrate protein remaining % > 50%)”. Also, the “substrate protein remaining % GSPT1” value on GSPT1 is listed as “A (A represents 0% ≤ substrate protein remaining % ≤ 50%)”.

Regarding `CC1CN(Cc2cc(F)c3c(c2)CN(C2CCC(=O)NC2=O)C3=O)CC(C)N1C(c1ccccc1)c1ccccc1` (stereo not drawn) [GT-05967, 3-(5-((4-benzhydryl-3,5-dimethylpiperazin-1-yl)methyl)-7-fluoro-1-oxoisoindolin-2-yl)piperidine-2,6-dione], the IC50 in experiment [1] fell in the range of 1000 to 1900 nM. The “substrate protein remaining % IKZF3” value at IKZF3 is listed as “A (A represents 0% ≤ substrate protein remaining % ≤ 50%)”. The “substrate protein remaining % IKZF1” value at IKZF1 is “B (B represents substrate protein remaining % > 50%)”. The “substrate protein remaining % GSPT1” value on GSPT1 is reported as “A (A represents 0% ≤ substrate protein remaining % ≤ 50%)”.

`O=C1CCC(N2Cc3c(ccc(CN4CCC5(CCN(C(c6ccccc6)c6ccccc6)CC5)C4)c3F)C2=O)C(=O)N1` (stereo not drawn) [GT-05970, 3-(5-((8-benzhydryl-2,8-diazaspiro[4.5]decan-2-yl)methyl)-4-fluoro-1-oxoisoindolin-2-yl)piperidine-2,6-dione]: in experiment [1], the 50% inhibitory concentration (IC50) is 1000 to 1900 nM. Also, at IKZF3, the “substrate protein remaining % IKZF3” value is “B (B represents substrate protein remaining % > 50%)”. For the same compound, the “substrate protein remaining % IKZF1” value on IKZF1 is reported as “B (B represents substrate protein remaining % > 50%)”. Moreover, the “substrate protein remaining % GSPT1” value on GSPT1 is recorded as “A (A represents 0% ≤ substrate protein remaining % ≤ 50%)”.

On to `O=C1CCC(N2Cc3cc(CN4CCC5(CCN(C(c6ccccc6)c6ccccc6)CC5)C4)c(F)cc3C2=O)C(=O)N1` (stereo not drawn) [GT-05971, 3-(5-((8-benzhydryl-2,8-diazaspiro[4.5]decan-2-yl)methyl)-6-fluoro-1-oxoisoindolin-2-yl)piperidine-2,6-dione], for which, in experiment [1], the half-maximal inhibitory concentration (IC50) fell in the range of 1000 to 1900 nM. For the same compound, the “substrate protein remaining % IKZF3” value on IKZF3 was “B (B represents substrate protein remaining % > 50%)”. Besides, on IKZF1, the “substrate protein remaining % IKZF1” value is reported as “B (B represents substrate protein remaining % > 50%)”. Moreover, at GSPT1, the “substrate protein remaining % GSPT1” value is given as “A (A represents 0% ≤ substrate protein remaining % ≤ 50%)”.

In the case of `O=C1CCC(N2Cc3c(CN4CCC5(CCN(C(c6ccccc6)c6ccccc6)CC5)C4)cccc3C2=O)C(=O)N1` (stereo not drawn) [GT-05973, 3-(4-((8-benzhydryl-2,8-diazaspiro[4.5]decan-2-yl)methyl)-1-oxoisoindolin-2-yl)piperidine-2,6-dione], the IC50 in experiment [1] was 1000 to 1900 nM. The “substrate protein remaining % IKZF3” value at IKZF3 was “A (A represents 0% ≤ substrate protein remaining % ≤ 50%)”. Further, on IKZF1, the “substrate protein remaining % IKZF1” value is on record as “B (B represents substrate protein remaining % > 50%)”. Further, the “substrate protein remaining % GSPT1” value at GSPT1 is on record as “A (A represents 0% ≤ substrate protein remaining % ≤ 50%)”.

On to `O=C1CCC(N2C(=O)c3ccc(N4CC5CCC4CN5C(c4ccccc4)c4ccccc4)cc3C2=O)C(=O)N1` (stereo not drawn) [GT-05976, 5-(5-benzhydryl-2,5-diazabicyclo[2.2.2]octan-2-yl)-2-(2,6-dioxopiperidin-3-yl) isoindoline-1,3-dione], for which the IC50 in experiment [1] is less than 500 nM. Besides, at IKZF3, the “substrate protein remaining % IKZF3” value is given as “B (B represents substrate protein remaining % > 50%)”. For the same compound, on IKZF1, the “substrate protein remaining % IKZF1” value is recorded as “B (B represents substrate protein remaining % > 50%)”. Further, the “substrate protein remaining % GSPT1” value on GSPT1 was “A (A represents 0% ≤ substrate protein remaining % ≤ 50%)”.

Turning to `O=C1CCC(N2Cc3cc(C(=O)N4CC5CCC(C4)N5C(c4ccccc4)c4ccccc4)ccc3C2=O)C(=O)N1` (stereo not drawn) [GT-05980, 3-(5-(8-benzhydryl-3,8-diazabicyclo[3.2.1]octane-3-carbonyl)-1-oxoisoindolin-2-yl)piperidine-2,6-dione], in experiment [1], the IC50 was in the range of 500 to 1000 nM. Moreover, the “substrate protein remaining % IKZF3” value on IKZF3 is “B (B represents substrate protein remaining % > 50%)”. The “substrate protein remaining % IKZF1” value at IKZF1 was “A (A represents 0% ≤ substrate protein remaining % ≤ 50%)”. Besides, on GSPT1, the “substrate protein remaining % GSPT1” value is “A (A represents 0% ≤ substrate protein remaining % ≤ 50%)”.

In experiment [1], `O=C1CCC(N2Cc3cc(C(=O)N4CCN(C5c6ccccc6-c6ccccc65)CC4)ccc3C2=O)C(=O)N1` (stereo not drawn) [GT-05986, 3-(5-(4-(9H-fluoren-9-yl)piperazine-1-carbonyl)-1-oxoisoindolin-2-yl)piperidine-2,6-dione] gave an IC50 of less than 500 nM. Besides, the “substrate protein remaining % IKZF3” value at IKZF3 is on record as “B (B represents substrate protein remaining % > 50%)”. The “substrate protein remaining % IKZF1” value on IKZF1 is “B (B represents substrate protein remaining % > 50%)”. For the same compound, the “substrate protein remaining % GSPT1” value at GSPT1 is on record as “A (A represents 0% ≤ substrate protein remaining % ≤ 50%)”.

`O=C1CCC(N2Cc3cc(C(=O)N4CC5(CCN(C(c6ccccc6)c6ccccc6)CC5)C4)ccc3C2=O)C(=O)N1` (stereo not drawn) [GT-05988, 3-(5-(7-benzhydryl-2,7-diazaspiro[3.5]nonane-2-carbonyl)-1-oxoisoindolin-2-yl)piperidine-2,6-dione] returned an IC50 in experiment [1] of less than 500 nM. Moreover, the “substrate protein remaining % IKZF3” value on IKZF3 was “B (B represents substrate protein remaining % > 50%)”. Further, the “substrate protein remaining % IKZF1” value at IKZF1 is on record as “B (B represents substrate protein remaining % > 50%)”. In addition, the “substrate protein remaining % GSPT1” value at GSPT1 is on record as “A (A represents 0% ≤ substrate protein remaining % ≤ 50%)”.
